According to patent US8053197B2, “Methods for detecting and treating autoimmune disorders” (Oregon Health & Science University, priority 2004, dated 2011):

What was measured:
Foxp3 = assay: E2 induction of Foxp3 in vitro in purified CD4+CD25− T cells (real-time RT-PCR); assay type: cell-based, mice
Description: FIG. 1 is a graph illustrating real-time RT-PCR analysis of Foxp3 expression in vitro in purified (>99%) CD4+CD25− T cells. E2 in combination with TCR stimulation by anti-CD3 antibody for 24 hours induced Foxp3 mRNA approximately 3-fold over levels in untreated cells or in anti-CD3 stimulated cells in the absence of E2. Foxp3 levels are shown relative to the housekeeping gene L32. Error bars are standard deviation of triplicate samples. One representative result of three is shown.
The capacity of E2 to induce Foxp3 expression in vitro in purified (>99%) CD4+CD25− T cells was tested. […]
For real-time RT-PCR analysis, total RNA was prepared using the Total RNeasy kit (Qiagen, Germantown, Md.) and cDNA was prepared using random hexamer primers (Invitrogen, Grand Island, N.Y.). Foxp3 message expression was quantified using the ABI 7000 Real-Time PCR System (Applied Biosystems, Foster City, Calif.). Amplification was performed in a total volume of 25 μl for 40 cycles and products were detected using SYBR Green I dye (Molecular Probes, Eugene, Oreg.). Samples were run in triplicate and relative expression level was determined by normalization to L32 with results presented as relative expression (RE) units. […] FoxP3 was detected with rabbit-anti-FoxP3 antiserum and standard chemiluminescence. […]

EAE = EAE induced with MOG-35-55 peptide/CFA/pertussis toxin, clinical score; assay type: in vivo, C57BL/6 mice
Text: Female C57BL/6 mice were pretreated with 17β-estradiol (E2) or placebo for 7 days prior to challenge with MOG-35-55 peptide/CFA/PM to induce EAE. At the peak of EAE in the placebo group (day 15 after induction), cells were harvested from both the placebo-treated mice (score=4.5-5) and E2-treated mice (score=0). Cell mixtures were combined within each treatment group. Five×10^4 CD4+CD25− responder cells in combination with 5×10^4 APC and the indicated ratios of CD4+CD25+ suppressor cells were stimulated in triplicate wells with anti-CD3 mAb for 3 days, with addition of [^3H]-thymidine for the last 12 h of culture. Representative data from two independent experiments are shown.
(§1) For E2 therapy, a 3 mm pellet containing 2.5 mg or 15 mg (as indicated) 17β-estradiol (Innovative Research of America, Sarasota, Fla.) was implanted s.c. (dorsally) 7 days prior to immunization (EAE) or 14 days prior to analysis of naïve mice. These pellets are designed to release their contents at a constant rate over 60 days. Control animals were implanted with pellets containing saline. Serum levels of E2 were monitored by RIA.
Briefly, mice were immunized s.c. in the flanks with 200 μg MOG-35-55 peptide in CFA (Difco Laboratories, Detroit, Mich.). Mice were also given pertussis toxin i.p on days 0 (75 ng) and 2 (200 ng).

Treg compartment = Treg compartment (CD25, Foxp3 mRNA, FoxP3 protein) in naïve mice treated with E2 for 14 days; assay type: in vivo, C57BL/6 mice
Description: Quadrant statistics noted are percent of live gate.
FIG. 5 is a graph illustrating real-time PCR analysis of Foxp3 mRNA in CD4+ cells from FIG. 4. Data are presented as Foxp3 relative to housekeeping gene L32. Error bars are standard deviation of triplicate samples.
Cells were pooled from 8-10 mice before sorting.
as §1
Single-cell suspensions were prepared from spleens and RBCs lysed. Non-immunized mice receiving E2 pellets were sacrificed 14 days after implantation, while immunized mice were sacrificed at the peak of EAE disease severity, approximately 17 days after induction. […]
For real-time RT-PCR analysis, total RNA was prepared using the Total RNeasy kit (Qiagen, Germantown, Md.) and cDNA was prepared using random hexamer primers (Invitrogen, Grand Island, N.Y.). Foxp3 message expression was quantified using the ABI 7000 Real-Time PCR System (Applied Biosystems, Foster City, Calif.). Amplification was performed in a total volume of 25 μl for 40 cycles and products were detected using SYBR Green I dye (Molecular Probes, Eugene, Oreg.). Samples were run in triplicate and relative expression level was determined by normalization to L32 with results presented as relative expression (RE) units. […] For analysis of FoxP3 protein, cells were washed in PBS then lysed and sonicated in lysis buffer {25 mM Tris pH 8.5, 2% lithium dodecyl sulfate, 1 mM EDTA, 10 mM sodium fluoride, 1 mM sodium orthovanadate, and 1× Complete protease inhibitors (Roche Diagnostics, Mannheim, Germany)} and quantified by BCA (Pierce, Rockford, Ill.). […] FoxP3 was detected with rabbit-anti-FoxP3 antiserum and standard chemiluminescence. […]

C[C@]12CC[C@@H]3c4ccc(O)cc4CC[C@H]3[C@@H]1CC[C@@H]2O [E2, 17β-estradiol]
fraction of CD25+ cells over TCR stimulation alone (Foxp3): increased | Foxp3 mRNA induction over levels in untreated cells (Foxp3; E2 in combination with anti-CD3 antibody for 24 hours, relative to L32): approximately 3 fold | EAE score (EAE; E2 pretreatment 7 days before challenge, day 15 after induction (placebo 4.5-5)): 0 | protection from EAE (EAE; wild-type C57BL/6 mice, therapeutic doses of E2): protected from EAE | FoxP3 protein (Treg compartment): increase | Foxp3 mRNA in CD4+ cells (Treg compartment): increase | increase in the fraction of CD25+ cells among all CD4+ cells versus untreated mice (Treg compartment): 43%
